Article PMC7346113, “Screening of Natural Stilbene Oligomers from Vitis vinifera for Anticancer Activity on Human Hepatocellular Carcinoma Cells” (Antioxidants, 2020)

Tests used:
Type in all cases: cell-based, human
Conditions in all cases: mean ± standard error
[1] = system: HH4; test: Cell viability, crystal violet assay, HH4 non-transformed hepatocytes
Source text: (§1) The human hepatoma cell line HepG2 was obtained from the American Tissue Culture Collection (ATCC, Manassas, VA, USA). The human hepatoma cell line Hep3B was obtained from the European Collection of Authenticated Cell Cultures (ECACC, Porton Down, Salisbury, Wiltshire, UK). HH4 non-transformed human hepatocyte cell line (kindly provided by Dr. I. Fabregat, Molecular Oncology, Bellvitge Biomedical Research Institute, Spain) was established as described.
(§2) HepG2 and Hep3B cell lines were maintained in Eagle’s Minimum Essential Medium and HH4 cell line was grown in Ham´s F12 Nutrient Mixture (Sigma-Aldrich, St Louis, MO, USA). Both culture media were supplemented with 10% heat inactivated fetal bovine serum, 2 mM L-glutamine and antibiotics (0.1 mg/mL streptomycin and 100 U/mL penicillin) (Sigma-Aldrich, St Louis, MO, USA). Cell cultures were grown in an incubator at 37 °C with 5% CO2 atmosphere. After reaching approximately 80% of confluence, cells were detached in a solution of 0.1% trypsin and 0.04% EDTA and plated as required for further experiments.
(§3) Cell lines were seeded into 96-well plates at 5 × 10^3 (HepG2) and 3 × 10^3 (Hep3B and HH4) cells/well 24 h before treatment. Increasing concentrations of the monomer trans-resveratrol, the dimers ampelopsin A and trans-ε-viniferin and the tetramers isohopeaphenol, hopeaphenol, R2-viniferin and R-viniferin were then added and cells were incubated for 24, 48, and 72 h. Stilbenes were dissolved in dimethyl sulfoxide (DMSO), Sigma-Aldrich, St Louis, MO, USA) at a final concentration of 0.01%. The same amount of DMSO was added to control cells. After treatment, the cell viability was determined using the crystal violet assay. The absorbance was recorded at 590 nm in a Synergy HT microplate reader (BioTek, Winooski, VT, USA). Cell viability was calculated as the percentage of viable cells treated with stilbene versus untreated control cells using the following equation: Cell viability (%) = [OD (Treatment) − OD (Blank)]/[OD (Control) − OD (Blank)] × 100. The cytotoxic effect of stilbenes was determined by calculating IC50 values using non-linear regression analysis (GraphPad Prism 6, San Diego, CA, USA).
(§4) The statistical package SPSS 19.0 (SPSS Inc. Chicago, IL, USA) was used for data analysis. The results were expressed as mean ± standard error (SE) from at least three experiments. Statistical significance for the differences of the means was estimated by parametric Student’s t-test. Differences between means were considered statistically significant for p < 0.05. IC50 values were derived from fitting the data to a sigmoidal dose-response curve with a three-parameter logistic model using Graph Pad Prism 6.

[2] = system: HepG2; test: Cell viability, crystal violet assay, HepG2
Source text: as §1, §2, §3, §4

[3] = system: Hep3B; test: Cell viability, crystal violet assay, Hep3B
Source text: as §1, §2, §3, §4

[4] = Homo sapiens, HepG2, 24 h, 24 h
[5] = Homo sapiens, HepG2, 48 h, 48 h
[6] = Homo sapiens, HepG2, 72 h, 72 h

| Compound | IC50 ([2]; 72 h) [µM] | IC50 [2, 4] [µM] | IC50 [2, 5] [µM] | IC50 [2, 6] [µM] | IC50 ([3]; Homo sapiens, Hep3B, 24 h) [µM] | IC50 ([3]; Homo sapiens, Hep3B, 48 h) [µM] | IC50 ([3]; Homo sapiens, Hep3B, 72 h) [µM] | IC50 ([3]; 72 h) [µM] | IC50 ([1]; Homo sapiens, Hepatocyte, 24 h) [µM] | IC50 ([1]; Homo sapiens, Hepatocyte, 48 h) [µM] | IC50 ([1]; Homo sapiens, Hepatocyte, 72 h) [µM] | IC50 ([1]; 72 h) [µM] |
| --- | --- | --- | --- | --- | --- | --- | --- | --- | --- | --- | --- | --- |
| Oc1ccc([C@H]2c3c(O)cc(O)cc3[C@H]3c4c(cc(O)cc4[C@@H]2[C@H]2c4cc(O)cc5c4[C@H](c4cc(O)cc(O)c4[C@@H]2c2ccc(O)cc2)[C@@H](c2ccc(O)cc2)O5)O[C@@H]3c2ccc(O)cc2)cc1 [Hopeaphenol] | 24.4 ± 2 | > 200 | 27 ± 3.3 | 24 | > 200 | 16.8 ± 2.3 | 13 | 13.1 ± 4.1 | > 200 | 92 ± 38 | 37.6 ± 13 |  |
| Oc1ccc([C@H]2c3c(O)cc(O)cc3[C@H]3c4c(cc(O)cc4[C@@H]2O)O[C@@H]3c2ccc(O)cc2)cc1 [Ampelopsin A] | 75.5 ± 21.5 | > 200 | 98.6 ± 24.9 | 76 | > 200 | 148 ± 14.4 | 109 ± 7.3 |  | > 200 | 178 ± 67.8 | 134 ± 34.7 |  |
| Oc1ccc(/C=C/c2cc(O)cc(O)c2)cc1 [trans-Resveratrol, reference compound] | 30.3 ± 4.4 | > 200 | 40.3 ± 9.3 | 30 | > 200 | 42 ± 11.6 | 21 ± 16.8 |  | > 200 | 135 ± 9 | 93 ± 16.1 |  |

Further lines, with some results ahead:

| IC50 ([2]; 72 h) [µM] | IC50 [2, 4] [µM] | IC50 [2, 5] [µM] | IC50 [2, 6] [µM] | IC50 ([3]; Homo sapiens, Hep3B, 24 h) [µM] | IC50 ([3]; Homo sapiens, Hep3B, 48 h) [µM] | IC50 ([3]; Homo sapiens, Hep3B, 72 h) [µM] | IC50 ([3]; 72 h) [µM] | Compound | IC50 ([1]; Homo sapiens, Hepatocyte, 24 h) [µM] | IC50 ([1]; Homo sapiens, Hepatocyte, 48 h) [µM] | IC50 ([1]; Homo sapiens, Hepatocyte, 72 h) [µM] | IC50 ([1]; 72 h) [µM] |
| --- | --- | --- | --- | --- | --- | --- | --- | --- | --- | --- | --- | --- |
| 54.1 ± 34 | 113 ± 33 | 68.8 ± 31 | 54 | 86.6 ± 11.7 | 37 ± 4.5 | 26 ± 3 |  | Oc1ccc([C@@H]2c3c(O)cc(O)cc3[C@H]3c4c(cc(O)cc4[C@@H]2[C@H]2c4cc(O)cc5c4[C@H](c4cc(O)cc(O)c4[C@H]2c2ccc(O)cc2)[C@@H](c2ccc(O)cc2)O5)O[C@@H]3c2ccc(O)cc2)cc1 [Isohopeaphenol] | > 200 | 96 ± 5.5 | 63.7 ± 3.7 |  |
|  | > 200 | > 200 | 192 ± 27.1 | > 200 | 137 ± 19.8 | 135 ± 35.7 |  | Oc1ccc([C@H]2Oc3cc(O)cc(/C=C/c4ccc5c(c4)[C@@H](c4cc(O)cc6c4[C@H](c4cc(O)cc(O)c4)[C@@H](c4ccc(O)cc4)O6)[C@H](c4ccc(O)cc4)O5)c3[C@@H]2c2cc(O)cc(O)c2)cc1 [R-Viniferin] |  |  |  |  |
|  | 140 ± 39.7 | 104 ± 19.2 | 94.8 ± 28.3 | 108 ± 31.8 | 73.9 ± 17.3 | 63 | 63.1 ± 10.8 | Oc1ccc(/C=C/c2cc(O)cc3c2[C@@H](c2cc(O)cc(O)c2)[C@H](c2ccc(O)cc2)O3)cc1 [trans-ε-Viniferin] | > 200 | 193 ± 21.1 | 178 | 178 ± 20.5 |
